Assay results from BigSolDB 2.1.

O=C(O)c1ccco1
Conditions	solubility (mole fraction)
in acetone, 280.15 K	0.153
in acetone, 283.25 K	0.159
in acetone, 288.55 K	0.172
in acetone, 293.25 K	0.189
in acetone, 299.15 K	0.206
in acetone, 302.95 K	0.218
in acetone, 308.45 K	0.237
in acetone, 315.75 K	0.265
in ethanol, 279.35 K	0.152
in ethanol, 282.75 K	0.162
in ethanol, 287.35 K	0.176
in ethanol, 294.55 K	0.198
in ethanol, 297.65 K	0.208
in ethanol, 303.05 K	0.225
in ethanol, 310.15 K	0.25
in ethanol, 313.75 K	0.268
in ethanol, 320.75 K	0.29
in ethanol, 325.75 K	0.311
in ethyl acetate, 281.35 K	0.0858
in ethyl acetate, 287.05 K	0.0983
in ethyl acetate, 291.95 K	0.11
in ethyl acetate, 296.55 K	0.124
in ethyl acetate, 301.25 K	0.137
in ethyl acetate, 305.15 K	0.147
in ethyl acetate, 307.45 K	0.157
in ethyl acetate, 312.15 K	0.171
in ethyl acetate, 316.35 K	0.191
in ethyl acetate, 322.35 K	0.216
in methyl acetate, 280.85 K	0.106
in methyl acetate, 284.15 K	0.117
in methyl acetate, 287.75 K	0.127
in methyl acetate, 291.65 K	0.137
in methyl acetate, 295.05 K	0.146
in methyl acetate, 298.75 K	0.156
in methyl acetate, 302.35 K	0.166
in methyl acetate, 308.25 K	0.184
in methyl acetate, 316.35 K	0.216
in methyl acetate, 319.35 K	0.232
in n-propanol, 282.95 K	0.138
in n-propanol, 288.35 K	0.158
in n-propanol, 293.75 K	0.176
in n-propanol, 297.55 K	0.195
in n-propanol, 303.15 K	0.208
in n-propanol, 307.65 K	0.226
in n-propanol, 312.55 K	0.244
in n-propanol, 315.45 K	0.258
in n-propanol, 319.75 K	0.273
in n-propanol, 326.15 K	0.3
in water, 284.85 K	0.0032
in water, 295.25 K	0.0064
in water, 299.45 K	0.0079
in water, 304.65 K	0.0095
in water, 310.65 K	0.0127
in water, 313.25 K	0.0156
in water, 316.85 K	0.0184
in water, 319.45 K	0.022
in water, 321.95 K	0.0282
in water, 324.75 K	0.0342
